This is an account of results in US7528128B2, “Pyrrolo[2,1-C][1,4]benzodiazepine hybrids and a process for the preparation thereof” (Council of Scientific & Industrial Research, priority 2006, dated 2009).

Series [1] relates to selected human cancer cell lines. The series can be described thus: In vitro cytotoxicity in selected human cancer cell lines (overall statements). It is filed as cell-based. The note with it: Table 3. The method, then:
(§1) In vitro evaluation of cytotoxic activity. The compound 5a, 5b, 5g, 5i and 5j were evaluated for in vitro anticancer activity against nine human tumour cells derived from six cancer types (colon, prostate, oral, lung, cervix and breast cancer) as shown in Table 3. […] Compounds 5a, 5b, 5g, 5i and 5j have been evaluated for their in vitro cytotoxicity in selected human cancer cell lines of colon (Colo205), lung (Hop-62), cervix (SiHa), prostate (DU145, PC3), oral (DWD, HT1080), and breast (MCF7, Zr-75-1) origin. A protocol of 48 h continuous drug exposure has been used and an […] has been used to estimate cell viability or growth. […] Compound 5a, Colo205 cell growth by 83%, DU145 cell growth by 84%, DWD cell growth by 70%, Hop62 cell growth by 87%, HT1080 cell growth by 80%, MCF7 cell growth by 73%, PC3 cell growth by 91%, SiHa cell growth by 67%, Zr-75-1 cell growth by 76%. Compound 5b, Colo205 cell growth by 20%, DU145 cell growth by 64%, DWD cell growth by 70%, Hop62 cell growth by 78%, HT1080 cell growth by 72%, MCF7 cell growth by 69%, PC3 cell growth by 72%, SiHa cell growth by 20%, Zr-75-1 cell growth by 20%. Compound 5g, Colo205 cell growth by 50%, DU145 cell growth by 20%, DWD cell growth by 94%, Hop62 cell growth by 84%, HT1080 cell growth by 94%, MCF7 cell growth by 71%, PC3 cell growth by 86%, SiHa cell growth by 74%, Zr-75-1 cell growth by 72%. Compound 5i, DU145 cell growth by 42%, Hop62 cell growth by 60%, HT1080 cell growth by 70%, Compound 5j, Colo205 cell growth by 44%, DU145 cell growth by 57%, DWD cell growth by 65%, Hop62 cell growth by 53%, HT1080 cell growth by 71%, PC3 cell growth by 81%, SiHa cell growth by 77%.

The test system of a further series is DU145 (prostate). The series can be described thus: In vitro cytotoxicity, 48 h continuous drug exposure. The note with it: for Activity status in terms of IC50 value: DU145, Prostate; for cell growth by %: DU145, relative to untreated control cells. Type of series: cell-based, human. The method, then:
as §1

In another series the test system is DWD (oral). The description is as above. The conditions noted are these: for Activity status in terms of IC50 value: Oral; for cell growth by %: relative to untreated control cells. Type of series: cell-based, human. The method, then: as §1
Another series has as its system PC3 (prostate). Described as above. It is filed as cell-based, human. The conditions noted are these: for Activity status in terms of IC50 value: PC3, Prostate; for cell growth by %: PC3, relative to untreated control cells. Here is the method: as §1
Another series has as its system MCF7 (breast). Described as above. It is filed as cell-based, human. The conditions noted are these: for Activity status in terms of IC50 value: MCF7, Breast; for cell growth by %: MCF7, relative to untreated control cells. Here is the method: as §1
Another series has as its system Zr-75-1 (breast). Described as above. Type of series: cell-based, human. The conditions noted are these: for Activity status in terms of IC50 value: Zr-75-1, Breast; for cell growth by %: Zr-75-1, relative to untreated control cells. The method, then: as §1
A further series relates to Colo205 (colon). The series is described as above. The note with it: for Activity status in terms of IC50 value: Colo205, Colon; for cell growth by %: Colo205, relative to untreated control cells. Type of series: cell-based, human. The method, then:
as §1

Another series has as its system SiHa (cervix). The description is as above. The conditions noted are these: for Activity status in terms of IC50 value: Cervix; for cell growth by %: relative to untreated control cells. It is filed as cell-based, human. The method, then:
as §1

For a further series, the system named is HT1080 (oral). The series is described as above. Type of series: cell-based, human. The note with it: for Activity status in terms of IC50 value: HT1080, Oral; for cell growth by %: HT1080, relative to untreated control cells. Here is the method:
as §1

Another series deals with Hop62 (lung). The description is as above. It is filed as cell-based, human. The note with it: for Activity status in terms of IC50 value: Hop62, Lung; for cell growth by %: Hop62, relative to untreated control cells. Here is the method:
as §1

In series [2] the test system is duplex-form calf thymus DNA (CT-DNA). The series can be described thus: Thermal denaturation studies with CT-DNA. It is filed as binding. The conditions noted are these: for ΔTm after incubation at 37° C. for 0 h / ΔTm after incubation at 37° C. for 18 h / ΔTm after incubation at 37° C. for 36 h: [PBD]:[DNA] 1:5, CT-DNA 100 μM, ligand 20 μM; for ΔTm after incubation at 37° C. for 0 h: pH 7.00, 0 h; for ΔTm after incubation at 37° C. for 18 h: pH 7.00, 18 h; for ΔTm after incubation at 37° C. for 36 h: pH 7.00, 36 h; for course of ΔTm over 0 hr, 18 hr and 36 hr (in words): incubation at 37° C. The method, then: Compounds were subjected to thermal denaturation studies with duplex-form calf thymus DNA (CT-DNA) using an adaptation of a reported procedure. Working solutions in aqueous buffer (10 mM NaH2PO4/Na2HPO4, 1 mM Na2EDTA, pH 7.00+0.01) containing CT-DNA (100 μm in phosphate) and the PBD (20 μm) were prepared by addition of concentrated PBD solutions in DMSO to obtain a fixed [PBD]/[DNA] molar ratio of 1:5. The DNA-PBD solutions were incubated at 37° C. for 0, 18, and 36 h prior to analysis. Samples were monitored at 260 nm using a Beckman DU-7400 spectrophotometer fitted with high performance temperature controller, and heating was applied at 1° C. min−1 in the 40-90° C. range. DNA helix coil transition temperatures (Tm) were obtained from the maxima in the (dA260)/dT derivative plots. Results are given as the mean ±standard deviation from three determinations and are corrected for the effects of DMSO co-solvent using a linear correction term. Drug-induced alterations in DNA melting behaviour are given by: ΔTm=Tm(DNA+PBD)−Tm (DNA alone), where the Tm value for the PBD-free CT-DNA is 69.0±0.01.

A further series deals with sixty human tumour cells. As to the kind of experiment: NCI in vitro anticancer screen, SRB protein assay, mean graph midpoints. The note with it: human tumour cell lines, 48 h continuous drug exposure. Type of series: cell-based. Here is the method: Biological Activity: some of in vitro biological activity studies were carried out at the National Cancer Institute, Maryland, USA.
5e was evaluated for in vitro anticancer activity against sixty human tumour cells derived from nine cancer types (leukemia, non-small-cell lung, colon, CNS, melanoma, ovarian, prostate, and breast cancer) as shown in (Table 1 and 2). For the compound, dose response curves for each cell line were measured at a minimum of five concentrations at 10 fold dilutions. A protocol of 48 h continuous drug exposure was used and a sulforhodamine B (SRB) protein assay was used to estimate cell viability or growth. The concentration causing 50% cell growth inhibition (GI50), total cell growth inhibition (TGI 0% growth) and 50% cell death (LC50, −50% growth) compared with the control was calculated.

For the compound “7-methoxy-8-{3-[2-benzoyl-(4-chlorophenyloxy)propoxy]}-(11aS)-1,2,3,11a-tetrahydro-5H-pyrrolo[2,1-c][1,4]benzodiazepine-5-one [Compound 5a]”, the “cytotoxicity against some cancer cell lines (in words)” value (shortened to “cytotoxicity”) in [1] was “promising cytotoxicity”. In addition, the “Activity status in terms of IC50 value” stood at 16 µg/mL with DU145 (prostate); 30 µg/mL with DWD (oral); 9 µg/mL in the series with PC3 (prostate); 27 µg/mL in the series on MCF7 (breast); 24 µg/mL with Zr-75-1 (breast); 17 µg/mL with Colo205 (colon). The “Activity status in terms of IC50 value” was found to be 43 µg/mL in the series with SiHa (cervix), 20 µg/mL with HT1080 (oral) and 13 µg/mL in the series on Hop62 (lung). For the same compound, the “cell growth by %” value is 84% in the series on DU145 (prostate); 70% in the series with DWD (oral); 91% in the series with PC3 (prostate); 73% with MCF7 (breast); 76% in the series with Zr-75-1 (breast); 83% with Colo205 (colon). Besides, the entries for the “cell growth by %” value in the series on SiHa (cervix), with HT1080 (oral) and in the series with Hop62 (lung) were 67%, 80% and 87%, respectively. Moreover, the “ΔTm after incubation at 37° C. for 0 h” value in series [2] came to 1.4 °C. Also, in [2], the “ΔTm after incubation at 37° C. for 18 h” value was 1.7 °C. Besides, the “ΔTm after incubation at 37° C. for 36 h” value in series [2] worked out at 2.2 °C. In addition, the “course of ΔTm over 0 hr, 18 hr and 36 hr (in words)” value (from here on “course of ΔTm over 0 hr”) in [2] is listed as “gradually increased”.

For the compound “7-methoxy-8-{3-[2-benzoyl-(4,6-dichlorophenyloxy)propoxy]}-(11aS)-1,2,3,11a-tetra hydro-5H-pyrrolo[2,1-c][1,4]benzodiazepine-5-one [Compound 5g]”, the “cytotoxicity” value in series [1] was “promising cytotoxicity”. In addition, the “Activity status in terms of IC50 value” in the series with DU145 (prostate) stood at 80 µg/mL; with DWD (oral), 6 µg/mL; with PC3 (prostate), 14 µg/mL; in the series on MCF7 (breast), 29 µg/mL; in the series with Zr-75-1 (breast), 28 µg/mL; in the series with Colo205 (colon) it was 50 µg/mL. Moreover, the results for the “Activity status in terms of IC50 value” in the series on SiHa (cervix), in the series on HT1080 (oral) and in the series with Hop62 (lung) were 26 µg/mL, 6 µg/mL and 16 µg/mL, respectively. Besides, the “cell growth by %” value with DU145 (prostate) was 20%; in the series on DWD (oral), 94%; in the series with PC3 (prostate), 86%; with MCF7 (breast), 71%; in the series with Zr-75-1 (breast), 72%; with Colo205 (colon) it was 50%. For the same compound, the “cell growth by %” value with SiHa (cervix) was found to be 74%; in the series with HT1080 (oral), 94%; with Hop62 (lung), 84%. In series [2], the “ΔTm after incubation at 37° C. for 0 h” value worked out at 1.4 °C. The “ΔTm after incubation at 37° C. for 18 h” value in series [2] was 1.6 °C. In series [2], the “ΔTm after incubation at 37° C. for 36 h” value was found to be 2.3 °C. The “course of ΔTm over 0 hr” value in series [2] is recorded as “gradually increased”.

Regarding `COc1cc2c(cc1OCCCCCOc1c(C)cc(Cl)cc1C(=O)c1ccccc1)N=C[C@@H]1CCCN1C2=O` [Compound 5f, 7-methoxy-8-{3-[2-benzoyl-(4-chloro-6-methylphenyloxy)pentoxy]}-(11aS)-1,2,3,11a-tetrahydro-5H-pyrrolo[2,1-c][1,4]benzodiazepine-5-one], in the series on sixty human tumour cells, the “Log10GI50 mean graph midpoint (MG_MID)” value is −6.47, the “Log10LC50 mean graph midpoint (MG_MID)” value was −4.89 and the “Log10TGI mean graph midpoint (MG_MID)” value is reported as −5.24.

Turning to `COc1cc2c(cc1OCCCCOc1ccc(Cl)cc1C(=O)c1ccccc1)N=C[C@@H]1CCCN1C2=O` [Compound 5b, 7-methoxy-8-{4-[2-benzoyl-(4-chlorophenyloxy)butoxy]}-(11aS)-1,2,3,11a-tetrahydro-5H-pyrrolo[2,1-c][1,4]benzodiazepine-5-one], in [1], the “cytotoxicity” value is recorded as “promising cytotoxicity”. Further, the “Activity status in terms of IC50 value” in the series with DU145 (prostate) was 35 µg/mL; with DWD (oral) it was 30 µg/mL; with PC3 (prostate), 28 µg/mL; in the series with MCF7 (breast), 31 µg/mL; in the series with Zr-75-1 (breast), greater than 80 µg/mL; in the series with Colo205 (colon), 32 µg/mL. In addition, the entries for the “Activity status in terms of IC50 value” with SiHa (cervix), in the series on HT1080 (oral) and in the series on Hop62 (lung) were greater than 80 µg/mL, 28 µg/mL and 22 µg/mL, respectively. Besides, the “cell growth by %” value is recorded as 64% in the series on DU145 (prostate); 70% with DWD (oral); 72% in the series with PC3 (prostate); 69% in the series with MCF7 (breast); 20% with Zr-75-1 (breast); 20% in the series on Colo205 (colon). The “cell growth by %” value worked out at 20% with SiHa (cervix), 72% in the series with HT1080 (oral) and 78% with Hop62 (lung). Further, in [2], the “ΔTm after incubation at 37° C. for 0 h” value came out at 1.5 °C. Further, in series [2], the “ΔTm after incubation at 37° C. for 18 h” value is 2.1 °C. Moreover, the “ΔTm after incubation at 37° C. for 36 h” value in series [2] amounted to 2.6 °C. In series [2], the “course of ΔTm over 0 hr” value is reported as “gradually increased”.
